Consider eleven compounds from ChEMBL document CHEMBL1134854, “Synthesis and biological evaluation of N-(7-indolyl)-3-pyridinesulfonamide derivatives as potent antitumor agents” (Bioorg Med Chem Lett, 2002).

For one test, the species on record is Mus musculus. Description: Number of deaths per total number of aminals tested; 0/5. It counts as functional.
The test system of test [1] is Colon cancer cell line. Description: In vivo activity as average tumor volume on day 9/average tumor volume on day 1; drug administered per oral. It counts as functional, Homo sapiens.
Test [2] has as its system Colon cancer cell line. Put plainly: In vivo activity as average tumor weight on day 22/average tumor weight in control group on day 22*100; drug administered per oral. The test is classed as functional, Homo sapiens.
Test [3] has as its system Colon cancer cell line. Put plainly: In vivo activity as average tumor volume on day 9/average tumor volume on day 1; drug administered intraperitoneal. It counts as functional, Homo sapiens.
The test system of test [4] is Colon cancer cell line. Put plainly: In vivo activity as average tumor weight on day 22/average tumor weight in control group on day 22*100; drug administered intraperitoneal. The test is classed as functional, Homo sapiens.
For another test, the system named is HCT-116. Description: Inhibitory concentration in vitro against HCT116 human colon cancer cells were determined for 72 h. It counts as functional, cell-based. As to conditions: HCT-116, 72 h.
In test [5] the test system is Colon cancer cell line. Put plainly: In vivo activity as average tumor weight on day 22/average tumor weight in control group on day 22*100; drug administered intra venously. It counts as functional, Homo sapiens.
In test [6] the test system is Colon cancer cell line. Put plainly: In vivo activity as average tumor volume on day 9/average tumor volume on day 1; drug administered intra venously. It counts as functional, Homo sapiens.
Test [7] concerns Colon cancer cell line. Description: In vivo activity as average tumor volume on day 9/average tumor volume on day 1 drug administered per oral. The test is classed as functional, Homo sapiens.

pIC50: −log10 of the molar value. “And” between values parts separate entries of the source, which are not always exact repeats. Equal entries are not always repeated.

In general, pIC50 refers to the negative decadic logarithm of the IC50, by convention in mol/L. Compound `Nc1ccc(S(=O)(=O)Nc2cccc3c(Cl)c[nH]c23)cn1` gave a Deaths/total in the test listed under Mus musculus of 0%. Further, the Day 9-RTV in the test with Colon cancer cell line [1] was 0.19; in the test with Colon cancer cell line [3] it was 0.3. Moreover, the entries for the “Day 22-T/C” value in the test on Colon cancer cell line [2] and in the test with Colon cancer cell line [4] were 12% and 26%, respectively. In the test on HCT-116, this compound showed a pIC50 of 6.15.

For the compound `NS(=O)(=O)c1ccc(S(=O)(=O)Nc2cccc3c(Cl)c[nH]c23)cn1`, the Deaths/total in the test filed under Mus musculus came out at 0%. In addition, the “Day 22-T/C” value was 8% with Colon cancer cell line [5]; 12% and 23% in the test on Colon cancer cell line [4]. Moreover, the Day 9-RTV with Colon cancer cell line [3] was 0.1 and 0.29; with Colon cancer cell line [6] it was 0.15. Further, the negative logarithm of the IC50 (pIC50) in the test on HCT-116 is 6.54.

For the compound `CC(C)Nc1ccc(S(=O)(=O)Nc2cccc3c(Cl)c[nH]c23)cn1`, in the test filed under Mus musculus, the Deaths/total came to 0%. Besides, in the test with Colon cancer cell line [3], the Day 9-RTV is 0.28 and 0.9. In the test on HCT-116, the pIC50 is 5.89.

`N#Cc1c[nH]c2c(NS(=O)(=O)c3cccnc3)cccc12` registered a Deaths/total in the test filed under Mus musculus of 0%. In addition, the Day 9-RTV with Colon cancer cell line [3] came to 2.6. In addition, the “Day 22-T/C” value in the test with Colon cancer cell line [4] turned out to be 65%. This compound showed a pIC50 in the test with HCT-116 of 6.64.

As to `Cc1cncc(S(=O)(=O)Nc2cccc3c(C#N)c[nH]c23)c1`, the Deaths/total in the test listed under Mus musculus was 0%. The values for the Day 9-RTV in the test with Colon cancer cell line [1] and in the test on Colon cancer cell line [3] were 3.4 and 0.52, respectively. For the same compound, the “Day 22-T/C” value with Colon cancer cell line [2] is given as 106%; in the test with Colon cancer cell line [4], 30%. Besides, the negative logarithm of the IC50 (pIC50) in the test with HCT-116 was 6.72.

The compound `Cc1cncc(S(=O)(=O)Nc2cccc3c(Cl)c[nH]c23)c1` gave a Deaths/total in the test listed under Mus musculus of 0%. The compound further had a Day 9-RTV in the test with Colon cancer cell line [3] of 3.7. Besides, the “Day 22-T/C” value in the test on Colon cancer cell line [4] amounted to 82%. The negative-log IC50 (pIC50) in the test with HCT-116 was 6.66.

In the test listed under Mus musculus, `O=S(=O)(Nc1cccc2c(Cl)c[nH]c12)c1cccnc1` displayed a Deaths/total of 0%. Besides, the Day 9-RTV with Colon cancer cell line [3] is 3.4. Besides, the “Day 22-T/C” value with Colon cancer cell line [4] turned out to be 70%. The pIC50 in the test on HCT-116 is 6.59.

In the test listed under Mus musculus, `N#Cc1c[nH]c2c(NS(=O)(=O)c3ccc(N)nc3)cccc12` yielded a Deaths/total of 0%. Further, the Day 9-RTV in the test on Colon cancer cell line [7] is 2.3; in the test on Colon cancer cell line [3] it was 1.5. Besides, the “Day 22-T/C” value in the test on Colon cancer cell line [2] came to 75%; with Colon cancer cell line [4], 35%. For the same compound, in the test on HCT-116, the pIC50 is 6.19.

Compound `O=S(=O)(Nc1cccc2c(Cl)c[nH]c12)c1ccc(O)nc1` gave a Deaths/total in the test listed under Mus musculus of 0%. In addition, the Day 9-RTV in the test on Colon cancer cell line [3] is 3. The “Day 22-T/C” value in the test with Colon cancer cell line [4] amounted to 66%. Moreover, in the test with HCT-116, the pIC50 was 6.10.

In turn, `O=S(=O)(Nc1cccc2c(Cl)c[nH]c12)c1ccc(NCCO)nc1` showed a Deaths/total in the test listed under Mus musculus of 0%. This compound registered a Day 9-RTV in the test on Colon cancer cell line [3] of 4.3. Besides, the “Day 22-T/C” value in the test with Colon cancer cell line [4] is on record as 89%. For the same compound, the negative-log IC50 (pIC50) with HCT-116 is 6.19.

In the case of `CNc1ccc(S(=O)(=O)Nc2cccc3c(Cl)c[nH]c23)cn1`, in the test listed under Mus musculus, the Deaths/total is reported as 0%. The compound further came in with a Day 9-RTV in the test with Colon cancer cell line [3] of 0.24. The “Day 22-T/C” value in the test on Colon cancer cell line [4] was found to be 38%. Moreover, the pIC50 with HCT-116 is 6.07.
